Calls of active or inactive are those of the source.
Assays:
[1] = system: Streptococcus sp. 'group A'; test: growth inhibition of control SK(-) GAS strain, dose response, counter-screen for streptokinase expression inhibitor project, luminescence, kanamycin, BacTiterGlo, confirmation (AID 1900); type: functional, organism-based
Streptokinase A = target: T1, Streptokinase A (Streptococcus pyogenes serotype M1, UniProt P10520); test: S. pyogenes streptokinase expression inhibitors, potency, dose response, plasminogen activation absorbance, OD405 (AID 1914); type: functional, Streptococcus pyogenes M1 GAS;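 also: secreted streptokinase activity via plasminogen activation per viability signal from cell pellet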
T1 sequence (P10520 whole entry): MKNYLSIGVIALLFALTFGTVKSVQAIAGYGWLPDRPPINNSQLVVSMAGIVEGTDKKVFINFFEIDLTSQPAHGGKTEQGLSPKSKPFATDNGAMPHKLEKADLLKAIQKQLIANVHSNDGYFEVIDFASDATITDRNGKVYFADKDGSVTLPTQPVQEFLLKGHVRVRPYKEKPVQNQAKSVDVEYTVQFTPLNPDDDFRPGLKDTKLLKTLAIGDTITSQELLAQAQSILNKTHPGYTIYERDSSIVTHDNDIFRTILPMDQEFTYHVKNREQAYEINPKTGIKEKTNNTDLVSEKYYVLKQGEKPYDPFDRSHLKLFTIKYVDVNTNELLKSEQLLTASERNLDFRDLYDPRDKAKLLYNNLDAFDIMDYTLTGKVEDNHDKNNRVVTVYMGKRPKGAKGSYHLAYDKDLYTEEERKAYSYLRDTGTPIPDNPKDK

Streptococcus = test: Group A Streptococcus viability loss, dose response, counter-screen for streptokinase expression inhibitor project, luminescence, BacTiterGlo (AID 1915); type: functional, organism-based;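 also: potency for reduction of bacterial viability or growth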
[2] = Luminescence Cell-Based Dose Retest to Confirm Inhibitors of Cancer Stem Cells. [Related pubchem assays (depositor defined):AID2717, AID2721]; type: functional; conditions: Homo sapiens
H4 = test: Luminescence Cell-Based Dose Response HTS to Identify Activators of 5'UTR Stem-Loop Driven Prion Protein mRNA Translation in H4 Neuroglioblastoma Cells. [Related pubchem assays: 1829 (Project Summary), 1814 (Primary HTS)]; type: functional; conditions: Homo sapiens
Cytochrome P450 2D6 = Cytochrome P450 2D6 (Homo sapiens, UniProt P10635);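 also: CYP2D6 member of a cytochrome P450 panel assay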
[3] = HEp-2 cell cytotoxicity, dose response, cytotoxicity control for RSV inhibitor project, HTS (AID 2410); type: functional; conditions: human respiratory syncytial virus
Cytochrome P450 1A2 = target: T2, Cytochrome P450 1A2 (Homo sapiens, UniProt P05177);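 also: PubChem cytochrome P450 panel assay, CYP1A2 panel member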
T2 sequence (P05177 whole entry): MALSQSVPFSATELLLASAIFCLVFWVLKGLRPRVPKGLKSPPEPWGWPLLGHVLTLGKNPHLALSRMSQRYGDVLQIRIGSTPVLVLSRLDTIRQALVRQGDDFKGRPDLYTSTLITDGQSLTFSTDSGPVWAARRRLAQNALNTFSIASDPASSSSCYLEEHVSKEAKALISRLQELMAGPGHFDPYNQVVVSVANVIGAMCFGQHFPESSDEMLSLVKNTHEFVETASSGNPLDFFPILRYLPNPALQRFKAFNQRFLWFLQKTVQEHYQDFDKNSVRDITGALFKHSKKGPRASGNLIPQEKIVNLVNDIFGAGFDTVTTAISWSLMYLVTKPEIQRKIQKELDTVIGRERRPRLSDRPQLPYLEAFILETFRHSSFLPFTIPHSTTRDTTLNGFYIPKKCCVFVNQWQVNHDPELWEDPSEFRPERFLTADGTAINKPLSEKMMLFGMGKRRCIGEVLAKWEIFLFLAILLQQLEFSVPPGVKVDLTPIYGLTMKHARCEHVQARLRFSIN

Cytochrome P450 3A4 = Cytochrome P450 3A4 (Homo sapiens, UniProt P08684);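 also: CYP3A4 tested as one member of a cytochrome P450 panel screen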
Cytochrome P450 3A4, sequence (P08684 whole entry): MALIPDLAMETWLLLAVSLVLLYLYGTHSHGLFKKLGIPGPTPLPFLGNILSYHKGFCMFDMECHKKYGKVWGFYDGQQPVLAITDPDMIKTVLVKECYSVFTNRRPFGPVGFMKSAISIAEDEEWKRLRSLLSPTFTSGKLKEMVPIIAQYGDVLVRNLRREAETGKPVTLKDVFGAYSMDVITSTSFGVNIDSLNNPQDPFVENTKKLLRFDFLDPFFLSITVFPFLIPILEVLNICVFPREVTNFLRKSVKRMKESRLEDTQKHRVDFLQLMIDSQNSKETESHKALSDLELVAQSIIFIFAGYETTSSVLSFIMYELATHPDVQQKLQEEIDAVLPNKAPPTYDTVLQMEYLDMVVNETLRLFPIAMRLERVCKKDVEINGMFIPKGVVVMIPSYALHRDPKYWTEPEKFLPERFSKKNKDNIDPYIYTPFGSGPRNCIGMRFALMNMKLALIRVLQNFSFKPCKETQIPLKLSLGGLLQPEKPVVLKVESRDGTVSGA

Cytochrome P450 2D6, sequence (P10635 whole entry): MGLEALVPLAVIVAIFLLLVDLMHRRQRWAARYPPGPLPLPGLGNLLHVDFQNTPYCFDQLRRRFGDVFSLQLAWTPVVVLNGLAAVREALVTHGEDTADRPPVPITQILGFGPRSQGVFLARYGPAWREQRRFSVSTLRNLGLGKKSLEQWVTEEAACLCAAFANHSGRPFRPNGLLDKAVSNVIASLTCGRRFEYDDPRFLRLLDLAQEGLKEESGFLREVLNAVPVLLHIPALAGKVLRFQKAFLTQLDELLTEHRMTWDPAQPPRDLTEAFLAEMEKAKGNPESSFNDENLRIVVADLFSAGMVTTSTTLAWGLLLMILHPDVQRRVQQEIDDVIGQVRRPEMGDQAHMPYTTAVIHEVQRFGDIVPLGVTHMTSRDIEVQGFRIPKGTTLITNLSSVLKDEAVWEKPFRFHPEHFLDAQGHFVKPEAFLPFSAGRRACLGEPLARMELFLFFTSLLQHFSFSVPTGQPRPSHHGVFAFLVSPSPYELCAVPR

Row | SMILES | EC50 [1] | EC50 (Streptokinase A) | EC50 (Streptococcus) | AC50 (Cytochrome P450 2D6) | further results
1 | CC(C)(C)OC(=O)[C@H](Cc1ccccc1)NC(=O)c1[nH]cnc1C(=O)Nc1ccc(Cl)cc1 | 3.71 µM (active) | 21.5 µM (active) | 11.1 µM (active) |  | AC50 [2]: 4.51 µM (active)
2 | Cc1oc2cc(Br)c(O)c(Br)c2c1-c1ccccc1 | 8.24 µM (active) | > 150 µM (not active) | 8.18 µM (active) |  | 
3 | COc1cc2sc3ccc(-c4ccc5[nH]ccc5c4)cc3c(=O)c2cc1OC |  |  |  |  | EC50 (H4): > 120 µM (not active)
4 | O=C(NCc1ccccc1)c1cccc(COc2cccc(Cl)c2)c1 |  |  |  | 31.6 µM (inconclusive) | 
5 | N#Cc1nc(-c2cccc3ccccc23)oc1NCC1CCCO1 (stereo not drawn) |  |  |  |  | CC50 [3]: 21.7 µM (active)
6 | COC(=O)CSc1nnc(C)n1-c1cccc(OC)c1 |  |  |  | 3.16 µM (inconclusive) | 
7 | c1ccc(-c2cc(-c3ccncc3)nc3ccc4ccccc4c23)cc1 | 3.37 µM (active) | > 150 µM (not active) | 8.51 µM (active) |  | AC50 [2]: 3.39 µM (active)
8 | Fc1ccccc1OCCCCSc1ncccn1 |  |  |  | 17.8 µM (inconclusive) | 
9 | c1cncc(-c2cncnc2NCc2cccs2)c1 |  |  |  | 39.8 µM (inconclusive) | 
10 | COc1cccc(-c2cncnc2Nc2ccc(F)cc2)c1 |  |  |  | 39.8 µM (inconclusive) | 
11 | Cc1ccc(-c2ccc(=O)n(CC(=O)NCc3ccco3)n2)cc1 |  |  |  | 22.4 µM (inconclusive) | AC50 (Cytochrome P450 1A2): 15.8 µM (inconclusive); AC50 (Cytochrome P450 3A4): 25.1 µM (inconclusive)
12 | Cc1cc(-c2c(C)[nH]n(-c3ccc(Cl)cc3)c2=O)n[nH]1 |  | > 150 µM (not active) |  |  | 
13 | O=C(/C(=N\Nc1ccc([N+](=O)[O-])cc1)Sc1nnnn1-c1ccccc1)c1ccccc1 | 5.19 µM (active) | > 150 µM (not active) | 35.8 µM (active) |  | 
14 | C[C@]12CC[C@@H]3c4ccc(OC(=O)c5ccccc5)cc4CC[C@H]3[C@@H]1CC[C@@H]2O [ESTRADIOL BENZOATE] | 2.24 µM (active) | 2.43 µM (active) | 4.49 µM (active) |  | 
